Experimental data published in patent EP3892267A1, “C[…] FOR LYMPHOMA” (Université de Paris, priority 2020, dated 2021).
Where a name gives a salt, the structure may show the parent alone.

Legend:
[1] = system: MD901 cell line; assay: Immunoblotting for cleaved caspase 3; assay type: cell-based, Human; conditions: MD901 (ABC); metformin 2.5mM, Kidrolase 2UI/mL, alone or combined
Description: (§1) The cells are washed in cold 1X PBS then lysis is carried out at 4°C (on ice) for 20 minutes, using a mix containing a High Salt buffer (0.4 M NaCl). 25 mM Hepes pH 7.7, 1.5 mM MgCI 2, 0.2 mM EDTA, 1%NP4O), protease and phosphatase inhibitors (20 mM glycerol phosphate, 0.2 mM Na3VO4, 10mM PNPP, 2 mM DTT, […] and an inhibitor cocktail from Boehringer Company). Whole cell extracts are centrifuged also at 4°C for 10 minutes at 13 000 rpm, the supernatant is transferred to an Eppendorf tube and the proteins are dosed using a protein kit assay (Bio-Rad) and stored at - 80°C. Immunoblotting was performed as previously reported (Authier H et al, 2014). Cleaved caspase 3 and β-actin antibodies are from Cell Signaling Technologies and Sigma, respectively.

[2] = system: OCI-LY19 cell line; assay: Immunoblotting for cleaved caspase 3; assay type: cell-based, Human; conditions: OCI-LY19 (GCB); metformin 2.5mM, Kidrolase 2UI/mL, alone or combined
Description: as §1

CN(C)C(=N)N=C(N)N [metformin, Metformin hydrochloride]
activation of caspase 3 (cleaved caspase 3) [1]: not to barely detectable | activation of caspase 3 (cleaved caspase 3) [2]: not to barely detectable
